PubChem BioAssay AID256 (DTP/NCI, 2004)
Several values for one entry are separate records, joined by “and”; a condition that tells them apart may be missing. Equal values may be shown once. Toxic doses and inconclusive results are not listed.

Test system: CD2F1 mice, L1210 leukemia ip, survival T/C
Assay: NCI In Vivo Anticancer Drug Screen. Data for tumor model L1210 Leukemia (intraperitoneal) in CD2F1 (CDF1) mice
Settings: higher = longer survival
Outline: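 Each value reflects a quotient of treated over vehicle control outcomes in mice with a transplanted tumor.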

[1] = endpoint: mean survival time, dose: 100.0 mg/kg/injection, schedule: Q04DX002 (ip), vehicle: saline with Tween-80
[2] = endpoint: mean survival time, dose: 100.0 mg/kg/injection, schedule: Q04DX003 (ip), vehicle: saline with Tween-80
[3] = endpoint: mean survival time, dose: 200.0 mg/kg/injection, schedule: Q04DX002 (ip), vehicle: saline with Tween-80
[4] = endpoint: mean survival time, dose: 200.0 mg/kg/injection, schedule: Q04DX003 (ip), vehicle: saline with Tween-80
[5] = endpoint: mean survival time, dose: 400.0 mg/kg/injection, schedule: Q04DX002 (ip), vehicle: saline with Tween-80

COc1ccc(/C=N/NC(=O)CNC(=O)Nc2cccc(Cl)c2)cc1
T/C (endpoint: mean survival time, dose: 12.5 mg/kg/injection, schedule: Q01DX009 (ip), vehicle: saline with Tween-80): 91 % of control
T/C (endpoint: mean survival time, dose: 25.0 mg/kg/injection, schedule: Q01DX009 (ip), vehicle: saline with Tween-80): 91 % of control

CCCCCCCCCCCCCCCCCC[N+]1(C)CCC[N+](C)(CCCCCCCCCCCCCCCCCC)CC1 (centres undefined)
T/C [1]: 98 % of control and 100 % of control
T/C [2]: 86 % of control and 108 % of control
T/C [3]: 92 % of control and 100 % of control
T/C [4]: 90 % of control and 104 % of control
T/C [5]: 87 % of control and 92 % of control
T/C (endpoint: mean survival time, dose: 400.0 mg/kg/injection, schedule: Q04DX003 (ip), vehicle: saline with Tween-80): 88 % of control

O=[N+]([O-])/C(=C/C=C/c1ccccc1)c1ccccc1
T/C (endpoint: mean survival time, dose: 100.0 mg/kg/injection, schedule: Q01DX001 (ip), vehicle: saline with Tween-80): 101 % of control
T/C (endpoint: mean survival time, dose: 200.0 mg/kg/injection, schedule: Q01DX001 (ip), vehicle: saline with Tween-80): 103 % of control
T/C (endpoint: mean survival time, dose: 400.0 mg/kg/injection, schedule: Q01DX001 (ip), vehicle: saline with Tween-80): 91 % of control

O=C1NC(=O)C(Cc2ccccc2)(Cc2ccccc2)C(=O)N1Cc1ccccc1
T/C (endpoint: mean survival time, dose: 50.0 mg/kg/injection, schedule: Q01DX009 (ip), vehicle: saline with Tween-80): 100 % of control
T/C (endpoint: mean survival time, dose: 100.0 mg/kg/injection, schedule: Q01DX009 (ip), vehicle: saline with Tween-80): 91 % of control
T/C (endpoint: mean survival time, dose: 200.0 mg/kg/injection, schedule: Q01DX009 (ip), vehicle: saline with Tween-80): 100 % of control

COc1ccc(NC(=O)Oc2cc(C(C)C)ccc2C)cc1
T/C [1]: 98 % of control
T/C [3]: 98 % of control
T/C [5]: 94 % of control

COc1c(C)c2c(c3c1CCC(C)(CCC(=O)O)O3)C(=O)OC2 (centres undefined)
T/C [1]: 103 % of control
T/C [3]: 108 % of control
T/C [5]: 100 % of control

C[CH2][Sn]([F])([CH2]C)[CH2]C
T/C (endpoint: mean survival time, dose: 0.37 mg/kg/injection, schedule: Q01DX009 (ip), vehicle: saline with Tween-80): 98 % of control
T/C (endpoint: mean survival time, dose: 0.75 mg/kg/injection, schedule: Q01DX009 (ip), vehicle: saline with Tween-80): 101 % of control
T/C (endpoint: mean survival time, dose: 1.5 mg/kg/injection, schedule: Q01DX009 (ip), vehicle: saline with Tween-80): 104 % of control
T/C (endpoint: mean survival time, dose: 3.0 mg/kg/injection, schedule: Q01DX009 (ip), vehicle: saline with Tween-80): 102 % of control
T/C (endpoint: mean survival time, dose: 6.0 mg/kg/injection, schedule: Q01DX009 (ip), vehicle: saline with Tween-80): 98 % of control

CC(=O)[CH-]C(=O)C(=O)[CH-]C(C)=O.[Cu+2]
T/C (endpoint: mean survival time, dose: 20.0 mg/kg/injection, schedule: Q01DX001 (ip), vehicle: saline with Tween-80): 96 % of control
T/C (endpoint: mean survival time, dose: 40.0 mg/kg/injection, schedule: Q01DX001 (ip), vehicle: saline with Tween-80): 96 % of control
T/C (endpoint: mean survival time, dose: 80.0 mg/kg/injection, schedule: Q01DX001 (ip), vehicle: saline with Tween-80): 94 % of control

C1Cn2nnnc2N1
T/C (endpoint: mean survival time, dose: 100.0 mg/kg/injection, schedule: Q04DX003 (ip), vehicle: saline): 103 % of control
T/C (endpoint: mean survival time, dose: 200.0 mg/kg/injection, schedule: Q04DX003 (ip), vehicle: saline): 103 % of control
T/C (endpoint: mean survival time, dose: 400.0 mg/kg/injection, schedule: Q04DX003 (ip), vehicle: saline): 94 % of control

NCc1c(Cl)c(Cl)c(Cl)c(CN)c1Cl
T/C (endpoint: mean survival time, dose: 50.0 mg/kg/injection, schedule: Q04DX003 (ip), vehicle: saline with Tween-80): 100 % of control
T/C [2]: 100 % of control
T/C [4]: 98 % of control

CC([O-])C(=O)[O-].NCC1CCC1CN.[Pt+4] (centres undefined)
T/C (endpoint: median survival time, dose: 0.78 mg/kg/injection, schedule: Q04DX003 (ip), vehicle: saline): 114 % of control
T/C (endpoint: median survival time, dose: 1.56 mg/kg/injection, schedule: Q04DX003 (ip), vehicle: saline): 120 % of control
T/C (endpoint: median survival time, dose: 3.12 mg/kg/injection, schedule: Q04DX003 (ip), vehicle: saline): 156 % of control
T/C (endpoint: median survival time, dose: 6.25 mg/kg/injection, schedule: Q04DX003 (ip), vehicle: saline): 156 % of control
T/C (endpoint: median survival time, dose: 12.5 mg/kg/injection, schedule: Q04DX003 (ip), vehicle: saline): 192 % of control and 341 % of control
T/C (endpoint: median survival time, dose: 25.0 mg/kg/injection, schedule: Q04DX003 (ip), vehicle: saline): 168 % of control and 223 % of control

CC(=O)C(C)(c1ccccc1)N(Cc1ccccc1)C(=O)c1ccccc1 (centres undefined)
T/C (endpoint: mean survival time, dose: 100.0 mg/kg/injection, schedule: Q01DX001 (ip), vehicle: saline): 96 % of control
T/C (endpoint: mean survival time, dose: 200.0 mg/kg/injection, schedule: Q01DX001 (ip), vehicle: saline): 98 % of control
T/C (endpoint: mean survival time, dose: 400.0 mg/kg/injection, schedule: Q01DX001 (ip), vehicle: saline): 96 % of control

Cc1cc2nc3c(=O)[nH]c(=O)nc-3n(CC(O)C(O)C(O)C(O)CO)c2cc1C (centres undefined)
T/C (endpoint: mean survival time, dose: 25.0 mg/kg/injection, schedule: Q01DX009 (ip), vehicle: saline): 101 % of control
T/C (endpoint: mean survival time, dose: 25.0 mg/kg/injection, schedule: Q01DX009 (ip), vehicle: suspension in saline): 96 % of control
T/C (endpoint: mean survival time, dose: 50.0 mg/kg/injection, schedule: Q01DX009 (ip), vehicle: saline): 93 % of control
T/C (endpoint: mean survival time, dose: 50.0 mg/kg/injection, schedule: Q01DX009 (ip), vehicle: suspension in saline): 104 % of control
T/C (endpoint: mean survival time, dose: 100.0 mg/kg/injection, schedule: Q01DX009 (ip), vehicle: saline): 95 % of control
T/C (endpoint: mean survival time, dose: 100.0 mg/kg/injection, schedule: Q01DX009 (ip), vehicle: suspension in saline): 102 % of control
T/C (endpoint: mean survival time, dose: 200.0 mg/kg/injection, schedule: Q01DX009 (ip), vehicle: saline): 98 % of control
T/C (endpoint: mean survival time, dose: 200.0 mg/kg/injection, schedule: Q01DX009 (ip), vehicle: suspension in saline): 98 % of control
T/C (endpoint: mean survival time, dose: 400.0 mg/kg/injection, schedule: Q01DX009 (ip), vehicle: saline): 103 % of control
T/C (endpoint: mean survival time, dose: 400.0 mg/kg/injection, schedule: Q01DX009 (ip), vehicle: suspension in saline): 98 % of control
T/C (endpoint: mean survival time, dose: 800.0 mg/kg/injection, schedule: Q01DX009 (ip), vehicle: saline): 95 % of control
